# Measurements published in paper PMC5749684, “Tetrahydrocarbazoles are a novel class of potent P-type ATPase inhibitors with antifungal activity” (PLoS ONE, 2018).
# What was measured:
# Mammalian SERCA = molecular target: T1, Mammalian SERCA (Oryctolagus cuniculus, UniProt P04191); test: ATP hydrolysis inhibition, SERCA; format: biochemical; settings: rabbit SERCA, racemic compounds, n = 3
# T1 construct: Ca^2+ ATPase was provided in SR membranes purified by extraction with a low concentration of deoxycholate (DOC); from tissue; host or cells: sarcoplasmic reticulum membranes (rabbit)
# Description: All membrane batches were validated by determining ATPase activity, pH optimum and orthovanadate sensitivity. Sarco/endoplasmatic reticulum (SR) Ca^2+ ATPase was provided in SR membranes purified by extraction with a low concentration of deoxycholate (DOC) and was kindly provided by Claus E. Olesen and Jesper V. Møller, Aarhus University and prepared as described in [43]. The pig kidney Na^+,K^+-ATPase purification included a mild SDS treatment of isolated microsomes followed by a washing step and was kindly provided by Natalya Fedosova, Aarhus University and prepared as described in [44].
# (§1) ATPase activity was determined by measuring the amount of liberated phosphate from ATP hydrolysis. The ATPase assay was performed in 96 well plates in a final reaction volume of 60 μL. 0.1–0.2 μg/well of DOC extracted SERCA membrane or the Na^+,K^+-ATPase was used, while 1–2.5 μg/well was used of the Pma1 membrane preparation. Reactions, including protein membrane preparation and various concentrations of exogenously added compounds, were conducted in the following buffers; Pma1 buffer: 17.5 mM MOPS-NaOH pH 7, 7 mM MgSO4, 44 mM KNO3 (vacuolar ATPase inhibitor), 22 mM NaN3 (mitochondrial ATPase inhibitor), 0.22 mM Na2MoO4 (acid phosphatase inhibitor); SERCA buffer: 9 mM MOPS-NaOH pH 7, 2.7 mM MgCl2, 0.1 mM CaCl2 and 72 mM KCl. Na^+,K^+-ATPase buffer: 30 mM MOPS-NaOH pH 7, 40 mM NaCl, 4 mM MgCl2 and 20 mM KCl. Reactions were initiated by the addition of Na-ATP to a final concentration of 2.5 mM (Pma1 and Na^+,K^+-ATPase) or 5 mM (SERCA), followed by 30 minutes incubation at 30°C. […] Absorption was measured at 860 nm after additional 30 minutes incubation at RT.
# Candida albicans SC5314 = test: Fungal growth inhibition, C. albicans SC5314; format: cell-based; settings: MIC defined as 50% growth inhibition, 24 h, n = 3–6
# Description: (§2) Fungal isolates were purchased from American Type Culture Collection, except for C. glabrata strain Cg003, which was kindly provided by Julius Subik, Comenius University in Bratislava, Slovak Republic. Cg003 is a clinical isolate, characterized to be resistant to fluconazole and itraconazole due to overexpression of the multidrug resistance efflux pumps Cdr1p and Cdr2p. Saccharomyces cerevisiae (ATCC 9763), Candida albicans (ATCC 90028), Candida albicans (SC5314), Candida glabrata (ATCC 90030), Candida glabrata (Cg003) and Candida krusei (ATCC 6258) were grown in Sabouraud broth (40 g/L D-glucose, 10 g/L peptone, pH 5.6) or YPD (10 g/L yeast extract, 20 g/L Bacto-peptone, 20 g/L glucose) medium to mid log phase, aliquoted into 20% (v/v) glycerol and cryopreserved as stocks at -80°C. For each growth assay, cells from these stocks were diluted in sterile water to OD600 = 0.025, which corresponds to a final starting inoculum of 0.5–2.5 x 10^5 CFU/mL. Growth assays were carried out by pipetting 3 μL compound dissolved in DMSO, 100 μL cell suspension and 97 μL 2 x RPMI media (20.8 g/L RPMI-1640 (Sigma-Aldrich catalog number R6504) 330 mM MOPS, 36 g/L glucose) into a microtiter plate and incubating for 24 h at 34°C, followed by OD measurement at 490 nm. The minimum inhibitory concentration (MIC) was defined as 50% growth inhibition of the microorganism as this measurement best represented the antifungal activity of the compounds. Standard errors were typically below 5%.
# [1] = system: Saccharomyces cerevisiae ATCC 9763; test: Fungal growth inhibition, S. cerevisiae ATCC 9763; format: cell-based; settings: ATCC9763, MIC defined as 50% growth inhibition, 24 h, n = 3–6
# Description: as §2
# Candida albicans Pma1 = molecular target: T2, Candida albicans Pma1 (Candida albicans, UniProt P28877); test: ATP hydrolysis inhibition, C. albicans Pma1; format: biochemical; settings: racemic compounds, n = 3
# T2 construct: endogenous in cells
# Description: Candida albicans microsomes were prepared from 100 mL overnight culture in YPD (10 g/L yeast extract (BD, Sparks, MD), 20 g/L Bacto peptone (BD, Sparks, MD), 20 g/L D-(+)-glucose), transferred to 1 L YPD and grown at RT, 150 rpm, for 7 h. Cells were harvested and washed in deionized water followed by centrifugation at 3360 x g. The cells were glucose-activated by the addition of 10% (w/v) D-(+)-glucose for 10 minutes while shaking. This suspension was then centrifuged at 3,360 x g for 3 minutes and 60–80 g of cells (wet weight) were resuspended in homogenization buffer (50 g/L glucose, 28.3% (v/v) glycerol, 100 mM Tris-HCl pH 7.25, 10 mM EDTA pH 8.0, 50 mM KCl, 1 mM DTT, 200 μM PMSF, 2 μg/ml Pepstatin A), and disrupted with 165 g glassbeads (500 μm diameter) in a BeadBeater (Biospec Product, Bartlesville, OK). The disrupted cells were centrifuged at 4°C for 5 and 15 minutes at 1,400 x g and 12,000 x g, respectively. The supernatant was collected and centrifuged at 251,000 x g for 1 h, and the membrane fraction was collected and homogenized in GTEK20 buffer (20% (v/v) glycerol, 10 mM Tris-HCl pH 7.25, 25 mM KCl, 0.5 mM EDTA pH 8.0, 1 mM DTT, 0.2 mM PMSF, 2 μg/mL Pepstatin A).
# as §1
# Candida glabrata Cg003 = test: microbe, parasite or virus in culture; format: cell-based; settings: for MIC: Nakaseomyces glabratus, CG003, 24 h, read-out: Growth inhibition MIC Candida glabrata Cg003
# Description: as §2, with “Cg003 is a clinical isolate, characterized to be resistant to fluconazole and itraconazole due to overexpression of the multidrug resistance efflux pumps Cdr1p and Cdr2p.” left out, “nm.” for “nm. The minimum inhibitory concentration (MIC) was defined as 50% growth inhibition of the microorganism as this measurement best represented the antifungal activity of the compounds. Standard errors were typically below 5%.”
# T2 sequence (P28877 whole entry): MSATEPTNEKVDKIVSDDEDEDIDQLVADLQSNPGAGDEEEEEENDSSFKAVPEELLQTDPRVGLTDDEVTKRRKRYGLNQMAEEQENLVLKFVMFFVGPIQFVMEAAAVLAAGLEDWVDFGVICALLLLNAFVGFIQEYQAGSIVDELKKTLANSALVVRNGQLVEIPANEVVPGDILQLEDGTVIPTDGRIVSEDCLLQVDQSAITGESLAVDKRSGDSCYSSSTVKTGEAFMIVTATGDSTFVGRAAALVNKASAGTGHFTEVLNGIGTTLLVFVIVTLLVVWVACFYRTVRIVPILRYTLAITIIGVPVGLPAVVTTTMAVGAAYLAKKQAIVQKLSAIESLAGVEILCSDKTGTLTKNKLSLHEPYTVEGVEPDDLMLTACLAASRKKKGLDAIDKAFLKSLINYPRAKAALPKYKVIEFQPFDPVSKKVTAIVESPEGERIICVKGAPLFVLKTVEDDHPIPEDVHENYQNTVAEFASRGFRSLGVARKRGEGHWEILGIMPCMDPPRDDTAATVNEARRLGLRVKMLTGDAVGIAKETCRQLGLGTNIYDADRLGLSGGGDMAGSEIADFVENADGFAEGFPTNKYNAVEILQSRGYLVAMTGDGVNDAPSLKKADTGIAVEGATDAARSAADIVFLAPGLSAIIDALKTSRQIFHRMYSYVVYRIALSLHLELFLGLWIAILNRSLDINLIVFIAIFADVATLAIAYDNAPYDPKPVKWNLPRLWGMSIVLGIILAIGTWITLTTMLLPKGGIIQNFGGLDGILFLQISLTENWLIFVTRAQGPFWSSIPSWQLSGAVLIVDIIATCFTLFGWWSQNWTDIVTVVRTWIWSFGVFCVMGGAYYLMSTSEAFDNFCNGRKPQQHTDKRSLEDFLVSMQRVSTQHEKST
# T1 sequence (P04191 1-994 isoform P04191-2): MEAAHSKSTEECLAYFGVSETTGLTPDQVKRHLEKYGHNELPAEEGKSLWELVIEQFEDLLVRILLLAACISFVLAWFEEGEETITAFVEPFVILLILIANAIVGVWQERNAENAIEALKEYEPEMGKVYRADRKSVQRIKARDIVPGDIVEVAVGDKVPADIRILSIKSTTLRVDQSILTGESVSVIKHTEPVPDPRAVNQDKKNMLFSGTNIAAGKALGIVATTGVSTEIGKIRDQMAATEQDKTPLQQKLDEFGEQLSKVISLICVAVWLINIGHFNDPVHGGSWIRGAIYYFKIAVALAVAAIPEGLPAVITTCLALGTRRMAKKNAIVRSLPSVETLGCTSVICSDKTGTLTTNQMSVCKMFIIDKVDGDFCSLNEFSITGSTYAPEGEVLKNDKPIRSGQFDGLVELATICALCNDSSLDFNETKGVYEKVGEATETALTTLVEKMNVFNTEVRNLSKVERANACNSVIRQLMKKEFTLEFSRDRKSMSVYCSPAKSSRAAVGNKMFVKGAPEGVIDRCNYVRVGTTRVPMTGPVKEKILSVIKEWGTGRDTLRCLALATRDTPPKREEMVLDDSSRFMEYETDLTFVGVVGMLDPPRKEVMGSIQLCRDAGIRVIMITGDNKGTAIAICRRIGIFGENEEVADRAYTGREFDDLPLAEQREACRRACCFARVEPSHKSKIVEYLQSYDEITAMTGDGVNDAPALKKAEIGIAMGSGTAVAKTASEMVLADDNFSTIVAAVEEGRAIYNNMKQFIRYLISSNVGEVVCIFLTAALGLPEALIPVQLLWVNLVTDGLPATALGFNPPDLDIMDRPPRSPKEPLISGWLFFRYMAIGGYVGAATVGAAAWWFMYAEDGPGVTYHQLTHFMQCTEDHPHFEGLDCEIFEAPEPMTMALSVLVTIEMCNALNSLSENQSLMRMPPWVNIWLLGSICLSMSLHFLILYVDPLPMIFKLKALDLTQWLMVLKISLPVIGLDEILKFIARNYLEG
Structure (SMILES),IC50 (Mammalian SERCA) [µM],MIC (Candida albicans SC5314) [µM],MIC [1] [µM],IC50 (Candida albicans Pma1) [µM],MIC (Candida glabrata Cg003) [µM],Antifungal activity against C. glabrata strain Cg003 (in words) (Candida glabrata Cg003; strain overexpresses efflux pumps Cdr1p and Cdr2p)
NC1CCCc2c1[nH]c1cc(OC(F)(F)F)ccc21 (stereo not shown) [Compound 4],1.55 ± 0.06,100 ± 43,7.5,46 ± 14.5,75,
CN1CCC(NC2CCCc3c2[nH]c2cc(OC(F)(F)F)ccc32)CC1 (stereo not shown) [Compound 5],61.7 ± 18.8,150,11.6 ± 8.1,130 ± 32.2,> 75,
FC(F)(F)Oc1ccc2c3c([nH]c2c1)C(NCc1ccc(Cl)cc1)CCC3 (stereo not shown) [Compound 6],0.09 ± 0.03,7.5,5 ± 2.9,3.89 ± 1.71,> 75,
FC(F)(F)Oc1ccc2c3c([nH]c2c1)C(NCc1ccc(Br)cc1)CCC3 (stereo not shown) [Compound 7],0.11 ± 0.06,15,1.5,2.47 ± 0.26,> 75,
FC(F)(F)Oc1ccc2c3c([nH]c2c1)C(NCCOc1ccc(Cl)cc1)CCC3 (stereo not shown) [Compound 8],0.26 ± 0.06,7.5,6.2 ± 2.6,3.77 ± 1.04,> 75,
FC(F)(F)Oc1ccc2[nH]c3c(c2c1)CCCC3NCc1ccc(-c2ccccn2)cc1 (stereo not shown) [Compound 9],3.27 ± 1.89,7.5,7.5,5.56 ± 1.55,23.7,exhibited antifungal activity
Clc1ccc2[nH]c3c(c2c1)CCCC3NCc1ccc(-c2ccccc2)cc1 (stereo not shown) [Compound 10],5.54 ± 3.16,6.8 ± 4.6,7.5,9.7 ± 2.15,> 75,
Cn1c2c(c3cc(Cl)ccc31)CCCC2NCc1ccc(-c2ccccc2)cc1 (stereo not shown) [Compound 11],> 20,> 20,> 20,> 20,> 20,
CN(Cc1ccc(-c2ccccc2)cc1)C1CCCc2c1[nH]c1ccc(Cl)cc21 (stereo not shown) [Compound 12],> 20,> 20,> 20,> 20,> 20,
